The test system of assay [1] is A549. Description: The compound was tested in vitro for its cytotoxicity against human A-549 cancer cell line by MTT method at 1 uM concentration; No inhibition. It counts as functional, cell-based. (In general: Formazan colour is commonly taken as a measure of viable cells.)
Assay [2] has as its system P388. In words: The compound was tested in vitro for its cytotoxicity against […] P-388 cancer cell line by MTT method at 1 uM concentration; No inhibition. In kind it is functional, cell-based. To be noted: Mus musculus.
Assay [3] has as its system HL-60. In words: The compound was tested in vitro for its cytotoxicity against human HL-60 cancer cell line by MTT method at 1 uM concentration; No inhibition. It counts as functional, cell-based.
Assay [4] relates to HL-60. Description: The compound was tested in vitro for its cytotoxicity against human HL-60 cancer cell line by MTT method at 1 uM concentration; Total inhibition. In kind it is functional, cell-based.
The subject of assay [5] is P388. In words: The compound was tested in vitro for its cytotoxicity against […] P-388 cancer cell line by MTT method at 1 uM concentration; Total inhibition. In kind it is functional, cell-based.
Assay [6] deals with K562. In words: Tested in vitro for inhibitory effect on the growth of K-562 cell line. To be noted: Homo sapiens. It counts as functional, cell-based.
The subject of assay [7] is SGC-7901. Description: Tested in vitro for inhibitory effect on the growth of human gastric carcinoma SGC-7901 cell line. It counts as functional, cell-based.
In assay [8] the test system is A549. Description: Tested in vitro for inhibitory effect on the growth of human A-549 cancer cell line. In kind it is functional, cell-based.
In assay [9] the test system is HL-60. Description: The compound was tested in vitro for its cytotoxicity against human HL-60 cancer cell line by MTT method at 1 uM concentration; Slight inhibition. In kind it is functional, cell-based.
Assay [10] concerns WI-38. In words: Tested in vitro for inhibitory effect on the growth of WI-38 cell line; No cytotoxicity. In kind it is functional, cell-based, Homo sapiens.
In assay [11] the test system is Bel-7402. Description: Tested in vitro for inhibitory effect on the growth of BEL -7402 cell line. It counts as functional, cell-based. To be noted: Homo sapiens.
Assay [12] deals with MCF7. Description: Tested in vitro for inhibitory effect on the growth of MCF-7 cell line. It counts as functional, cell-based. To be noted: Homo sapiens.
The test system of assay [13] is A549. In words: The compound was tested in vitro for its cytotoxicity against human A-549 cancer cell line by MTT method at 1 uM concentration; Slight inhibition. In kind it is functional, cell-based.
For assay [14], the system named is P388. In words: The compound was tested in vitro for its cytotoxicity against […] P-388 cancer cell line by MTT method at 1 uM concentration; Slight inhibition. It counts as functional, cell-based. To be noted: Mus musculus.
Assay [15] has as its system A549. Description: The compound was tested in vitro for its cytotoxicity against human A-549 cancer cell line by MTT method at 1 uM concentration; Significant inhibition. In kind it is functional, cell-based.
The subject of assay [16] is HL-60. Description: The compound was tested in vitro for its cytotoxicity against human HL-60 cancer cell line by MTT method at 1 uM concentration; Significant inhibition. It counts as functional, cell-based.
Assay [17] addresses T1, DNA polymerase I, thermostable (Thermus aquaticus, UniProt P19821). Description: Tested for 50% inhibition against Taq DNA polymerase at the concentration of 10 uM; No inhibition.
Assay [18] deals with T1, DNA polymerase I, thermostable. In words: Tested for 50% inhibition against Taq DNA polymerase at the concentration of 20 uM; No inhibition.
The target in assay [19] is Telomerase reverse transcriptase (Homo sapiens, UniProt O14746). In words: Tested for 50% inhibition against Telomerase.
The target in assay [20] is T1, DNA polymerase I, thermostable. Description: Tested for 50% inhibition against Taq DNA polymerase at the concentration of 50 uM; No inhibition.

Usually pIC50 stands for −log10 of the IC50, conventionally taken in molar units. Higher therefore signals a low IC50.

pIC50: −log10 of the molar value. The source made the active and inactive calls. No cut-off for these calls is given here.

T1 sequence (P19821 whole entry): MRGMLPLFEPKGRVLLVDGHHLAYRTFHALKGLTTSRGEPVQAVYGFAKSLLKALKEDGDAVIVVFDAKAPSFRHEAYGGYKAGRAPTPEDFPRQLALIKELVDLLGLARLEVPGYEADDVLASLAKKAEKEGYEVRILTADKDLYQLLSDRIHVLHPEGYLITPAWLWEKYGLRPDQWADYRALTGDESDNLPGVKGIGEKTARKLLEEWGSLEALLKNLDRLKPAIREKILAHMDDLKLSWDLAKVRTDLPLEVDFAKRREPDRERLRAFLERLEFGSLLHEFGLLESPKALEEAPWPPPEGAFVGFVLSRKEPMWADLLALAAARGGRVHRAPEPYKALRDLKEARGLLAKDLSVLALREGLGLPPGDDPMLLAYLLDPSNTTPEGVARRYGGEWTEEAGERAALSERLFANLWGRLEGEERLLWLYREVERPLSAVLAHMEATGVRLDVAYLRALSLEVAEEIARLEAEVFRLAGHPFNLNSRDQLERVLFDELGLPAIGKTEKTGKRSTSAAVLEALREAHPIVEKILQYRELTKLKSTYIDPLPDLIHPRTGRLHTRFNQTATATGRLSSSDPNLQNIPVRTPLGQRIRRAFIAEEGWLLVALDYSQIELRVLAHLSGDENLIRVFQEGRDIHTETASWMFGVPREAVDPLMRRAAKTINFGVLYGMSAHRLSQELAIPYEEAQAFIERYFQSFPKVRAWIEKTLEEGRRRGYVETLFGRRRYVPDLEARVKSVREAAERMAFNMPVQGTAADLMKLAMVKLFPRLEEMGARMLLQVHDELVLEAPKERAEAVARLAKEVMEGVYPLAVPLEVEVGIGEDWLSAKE
Sequence of Telomerase reverse transcriptase (O14746 whole entry): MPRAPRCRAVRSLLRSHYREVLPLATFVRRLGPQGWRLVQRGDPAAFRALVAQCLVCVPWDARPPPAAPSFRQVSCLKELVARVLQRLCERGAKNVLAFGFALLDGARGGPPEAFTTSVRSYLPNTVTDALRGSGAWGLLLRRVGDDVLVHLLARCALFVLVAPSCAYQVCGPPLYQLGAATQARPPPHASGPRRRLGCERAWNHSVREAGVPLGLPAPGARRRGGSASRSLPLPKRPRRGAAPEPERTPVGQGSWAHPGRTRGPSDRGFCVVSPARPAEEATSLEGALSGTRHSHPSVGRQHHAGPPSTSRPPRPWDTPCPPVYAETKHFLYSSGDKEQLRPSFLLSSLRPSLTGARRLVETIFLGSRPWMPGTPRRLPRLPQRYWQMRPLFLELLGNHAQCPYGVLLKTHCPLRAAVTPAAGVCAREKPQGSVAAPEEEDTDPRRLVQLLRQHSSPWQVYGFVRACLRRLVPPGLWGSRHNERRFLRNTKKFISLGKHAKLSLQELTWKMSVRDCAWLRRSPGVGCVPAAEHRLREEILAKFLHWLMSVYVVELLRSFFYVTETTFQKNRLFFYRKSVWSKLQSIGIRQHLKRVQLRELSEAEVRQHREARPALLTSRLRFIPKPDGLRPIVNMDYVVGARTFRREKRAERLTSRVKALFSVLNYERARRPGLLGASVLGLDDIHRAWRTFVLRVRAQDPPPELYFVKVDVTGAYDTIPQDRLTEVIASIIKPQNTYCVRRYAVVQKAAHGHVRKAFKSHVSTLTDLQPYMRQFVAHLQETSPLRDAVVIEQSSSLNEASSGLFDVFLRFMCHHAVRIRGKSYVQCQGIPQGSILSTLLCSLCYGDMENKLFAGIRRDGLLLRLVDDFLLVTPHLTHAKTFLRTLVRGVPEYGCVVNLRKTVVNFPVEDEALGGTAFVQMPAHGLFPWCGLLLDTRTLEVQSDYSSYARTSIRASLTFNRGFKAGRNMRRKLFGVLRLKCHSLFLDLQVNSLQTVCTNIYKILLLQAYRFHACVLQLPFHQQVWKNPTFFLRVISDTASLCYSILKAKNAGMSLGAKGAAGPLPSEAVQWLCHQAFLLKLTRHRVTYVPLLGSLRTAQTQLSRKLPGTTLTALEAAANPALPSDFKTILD

Consider `CC(C)=CCC(OC(=O)c1ccccc1)C1=CC(=O)c2c(O)ccc(O)c2C1=O` (centres undefined), for which the outcome in assay [1], in assay [2] and in assay [3] was inactive.

For the compound `CC1(C)CC[C@@H](C2=CC(=O)c3c(O)ccc(O)c3C2=O)O1`, the Activity result in [4] and in assay [5] was “Total inhibition” throughout. For the same compound, the result in [1] was inactive.

Take `CC(C)=CCC(OC(=O)c1ccc2ccccc2c1)C1=CC(=O)c2c(O)ccc(O)c2C1=O` (centres undefined): the pIC50 in assay [6] is 4.51; in assay [7], 4.31; in assay [8] it was 3.41; in assay [11], 4.17; in assay [12], 4.03. The Activity entry in assay [9] is given as “Slight inhibition”. Besides, the IC50 result in assay [10] is reported as “No cytotoxicity”. Further, the outcome in assay [1] and in assay [2] was inactive.

As for `CC1(C)CC[C@H](C2=CC(=O)c3c(O)ccc(O)c3C2=O)O1`, the Activity entry in assay [4] and in assay [5] was “Total inhibition” in each case. Also, the result in assay [1] was inactive.

As to `CC(C)=CCC(O)C1=CC(=O)c2c(O)ccc(O)c2C1=O` (centres undefined), the Activity result in assay [13], in assay [14] and in assay [9] was “Slight inhibition” throughout.

`CC(C)=CCC(OC(=O)Cc1c[nH]c2ccccc12)C1=CC(=O)c2c(O)ccc(O)c2C1=O` (centres undefined): in assay [9], the Activity result was “Slight inhibition”. Also, the outcome in [1] and in assay [2] was inactive.

Take `CC(C)=CCC(OC(=O)COCc1ccccc1)C1=CC(=O)c2c(O)ccc(O)c2C1=O` (centres undefined): the outcome in assay [1] and in assay [2] was inactive.

`CC(C)=CCC(OC(=O)CCCCC(C)C)C1=CC(=O)c2c(O)ccc(O)c2C1=O` (centres undefined): the pIC50 in assay [6] is 4.74; in assay [7] it was 9.00; in assay [8], 7.80; in assay [11], 9.77; in [12] it was 3.60. Moreover, the Activity entry in assay [9] and in assay [15] was “Significant inhibition” throughout. In addition, the IC50 entry in assay [10] is “No cytotoxicity”. Further, the result in assay [2] was inactive.

As to `CC(C)=CC[C@H](O)C1=CC(=O)c2c(O)ccc(O)c2C1=O`, the Activity entry in assay [13], in [14] and in assay [9] was “Slight inhibition” throughout.

`CCCCCCCCCCCC(=O)OC(CC=C(C)C)C1=CC(=O)c2c(O)ccc(O)c2C1=O` (centres undefined): the Activity entry in assay [13] and in assay [9] was “Slight inhibition” throughout. Also, in assay [2], the outcome was inactive.

For `CC(C)=CCC(OC(=O)COc1ccc2ccccc2c1)C1=CC(=O)c2c(O)ccc(O)c2C1=O` (centres undefined), in [9], the Activity entry was “Slight inhibition”. The outcome in assay [1] and in [2] was inactive.

For the compound `CC(=O)O[C@H](CC=C(C)C)C1=CC(=O)c2c(O)ccc(O)c2C1=O` [ACETYLSHIKONIN], the pIC50 in assay [6] is 4.54; in assay [7], 6.54; in [8], 4.41; in assay [11] it was 7.17; in [12] it was 4.51; in [19] it was 4.43. The Activity result in assay [14], in assay [16] and in assay [15] was “Significant inhibition” throughout. The IC50 entry is on record as “No cytotoxicity” in assay [10], “Not Active” in assay [17], “Not Active” in assay [18] and “Not Active” in assay [20].

Consider `CCCC(=O)OC(CC=C(C)C)C1=CC(=O)c2c(O)ccc(O)c2C1=O` (centres undefined), for which the Activity entry in [9] was “Slight inhibition”. The outcome in assay [1] and in assay [2] was inactive.

With `CC(C)=CC[C@@H](O)C1=CC(=O)c2c(O)ccc(O)c2C1=O`, the Activity result in [13], in assay [14] and in assay [9] was “Slight inhibition” in each case.

Regarding `CC(C)=CCC(OC(=O)c1cccnc1)C1=CC(=O)c2c(O)ccc(O)c2C1=O` (centres undefined), in assay [9], the Activity result is reported as “Slight inhibition”. Also, the result in assay [1] and in assay [2] was inactive.

As to `CC(C)=CCC(OC(=O)c1cccc2ccccc12)C1=CC(=O)c2c(O)ccc(O)c2C1=O` (centres undefined), the Activity result in assay [9] is given as “Slight inhibition”. Also, the outcome in [1] and in assay [2] was inactive.
